The record followed here is ChEMBL document CHEMBL1201862, “PubChem BioAssay data set” (2004).

Among the test systems are EKVX; U-251; MDA-N; MDA-MB-231; BT-549; CAKI-1; CCRF-CEM; 786-0; HCC 2998; COLO 205; LOX IMVI; OVCAR-4; HCT-116; NCI/ADR-RES; TK-10; SK-MEL-5; A498; HT-29; SR; IGROV-1.
Test in all cases: NCI-60 cell line screen, 48 h

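Five concentrations, 48 hours, 96-well plates. GI50 = concentration required for 50% inhibition of growth.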 The source made the active and inactive calls. No stated cut-off is given here; in the data, active = GI50 up to about 1.1 µM and inactive = higher.

For the molecule `Cc1cc2[nH]c3c(C#N)c(-c4ccccc4)c(/N=N/c4ccc(F)cc4)c(=O)n3c2cc1C`, the GI50 with EKVX was > 100 µM (inactive); with U-251 it was 42.5 µM (inactive); in the assay with MDA-N it was > 100 µM (inactive); with MDA-MB-231, > 100 µM (inactive); with BT-549 it was > 100 µM (inactive); in the assay with CAKI-1, > 100 µM (inactive). Also, the GI50 was > 100 µM (inactive) in the assay on CCRF-CEM; 31 µM (inactive) in the assay with 786-0; > 100 µM (inactive) with HCC 2998; > 100 µM (inactive) in the assay on COLO 205; > 100 µM (inactive) in the assay with LOX IMVI; 91 µM (inactive) in the assay with OVCAR-4. The GI50 is 25.6 µM (inactive) in the assay on HCT-116; > 100 µM (inactive) in the assay with NCI/ADR-RES; > 100 µM (inactive) in the assay on TK-10; 9.55 µM (inactive) in the assay with SK-MEL-5; > 100 µM (inactive) in the assay on A498.

As to `O=C(O)C1C(C(=O)O)C23CC2(C(=O)O)C2(C(=O)O)CCC3=C3CCCC312` (configuration not stated), the GI50 in the assay with EKVX is 11.6 µM (inactive); in the assay with U-251, 5.97 µM (inactive); with MDA-N it was 4.79 µM (inactive); in the assay on MDA-MB-231 it was 12.1 µM (inactive); in the assay on BT-549 it was 17.2 µM (inactive); in the assay with CAKI-1 it was 20.2 µM (inactive). The GI50 is 7.45 µM (inactive) in the assay with HT-29; 2.24 µM (inactive) with SR; 10.3 µM (inactive) in the assay with 786-0; 3.81 µM (inactive) in the assay with COLO 205; 10.6 µM (inactive) in the assay with LOX IMVI; 7.93 µM (inactive) in the assay with IGROV-1. Moreover, the GI50 was 16 µM (inactive) with OVCAR-4; 6.85 µM (inactive) in the assay with HCT-116; 20.7 µM (inactive) in the assay on NCI/ADR-RES; 11.1 µM (inactive) in the assay on TK-10; 5.22 µM (inactive) with SK-MEL-5; 18.3 µM (inactive) with A498.

For `CCCCNC(=O)C1=C(C)NC(C)=C(C(=O)NCCCC)C1`, the GI50 in the assay on EKVX was 58.7 µM (inactive); with U-251, > 100 µM (inactive); in the assay on MDA-N, > 100 µM (inactive); in the assay on MDA-MB-231, > 100 µM (inactive); with BT-549, > 100 µM (inactive); with CAKI-1, > 100 µM (inactive). Further, the GI50 in the assay with HT-29 was > 100 µM (inactive); in the assay on 786-0, > 100 µM (inactive); with HCC 2998 it was > 100 µM (inactive); with COLO 205, > 100 µM (inactive); in the assay with LOX IMVI it was > 100 µM (inactive); with IGROV-1, 61.1 µM (inactive). The GI50 in the assay on OVCAR-4 was > 100 µM (inactive); in the assay on HCT-116, > 100 µM (inactive); in the assay on NCI/ADR-RES, > 100 µM (inactive); in the assay on TK-10 it was > 100 µM (inactive); in the assay with SK-MEL-5, 89.7 µM (inactive); with A498, > 100 µM (inactive).

For the molecule `COC(=O)c1c(O)ccc2c1c1c(n2CCc2ccc(OC)c(OC)c2)C(=O)c2ccccc2C1=O`, the GI50 with EKVX is 20.5 µM (inactive); in the assay on U-251, 18.4 µM (inactive); with MDA-N, 10.9 µM (inactive); in the assay on MDA-MB-231, 22.4 µM (inactive); in the assay with BT-549, 10.9 µM (inactive); in the assay with CAKI-1, 17.5 µM (inactive). Besides, the GI50 was 9.79 µM (inactive) in the assay on CCRF-CEM; 3.13 µM (inactive) with HT-29; 14.8 µM (inactive) in the assay with SR; 13.8 µM (inactive) in the assay with 786-0; 4.29 µM (inactive) in the assay on HCC 2998; 3.57 µM (inactive) in the assay with COLO 205. The GI50 was 14.6 µM (inactive) in the assay with IGROV-1; 13.7 µM (inactive) in the assay with OVCAR-4; 12.7 µM (inactive) in the assay with HCT-116; 10.8 µM (inactive) in the assay with NCI/ADR-RES; 21.6 µM (inactive) in the assay on TK-10; 11.4 µM (inactive) in the assay on SK-MEL-5. Moreover, in the assay on A498, the GI50 is 15.9 µM (inactive).

For `O=C(N/N=C1\CCc2ccccc2C1)N/N=C1\CCc2ccccc2C1`, the GI50 with EKVX, in the assay on U-251, with MDA-N, with MDA-MB-231, in the assay on BT-549 and in the assay with CAKI-1 was > 10 µM (inactive) in each case. The GI50 with CCRF-CEM, in the assay with HT-29, with SR, in the assay on 786-0, in the assay with HCC 2998 and with COLO 205 was > 10 µM (inactive) in each case. The GI50 in the assay with OVCAR-4, with HCT-116, in the assay on NCI/ADR-RES and in the assay on TK-10 was > 10 µM (inactive) throughout.

`[O-][n+]1nc(N2CCOCC2)nc2ccccc21`: the GI50 in the assay on EKVX, in the assay with U-251, with MDA-N, in the assay with MDA-MB-231, in the assay on BT-549 and with CAKI-1 was > 100 µM (inactive) throughout. Moreover, the GI50 in the assay on CCRF-CEM, in the assay with HT-29, in the assay with 786-0, in the assay with HCC 2998, with COLO 205 and in the assay with LOX IMVI was > 100 µM (inactive) in each case. In addition, the GI50 was > 100 µM (inactive) with IGROV-1; > 100 µM (inactive) in the assay on HCT-116; > 100 µM (inactive) in the assay on NCI/ADR-RES; 77.1 µM (inactive) with TK-10; 43.3 µM (inactive) in the assay with A498.

Take `COc1cc(C)c(/C=C2/N=C(c3ccccc3)OC2=O)c([N+](=O)[O-])c1OC`: the GI50 with EKVX, in the assay on U-251, in the assay on MDA-N, with MDA-MB-231, in the assay on BT-549 and with CAKI-1 was > 100 µM (inactive) throughout. For the same molecule, the GI50 with CCRF-CEM is 73.6 µM (inactive); in the assay on HT-29, > 100 µM (inactive); in the assay with 786-0, > 100 µM (inactive); in the assay with HCC 2998, > 100 µM (inactive); in the assay on COLO 205, > 100 µM (inactive); in the assay with LOX IMVI, > 100 µM (inactive). Further, the GI50 in the assay with IGROV-1, in the assay with OVCAR-4, in the assay on HCT-116, in the assay on NCI/ADR-RES, in the assay on TK-10 and in the assay on A498 was > 100 µM (inactive) throughout.

Consider `[O-][S+]1CC[S+]([O-])CC[S+]([O-])CC1` (configuration not stated), for which the GI50 in the assay with EKVX, with U-251, in the assay on MDA-N, with MDA-MB-231, in the assay with BT-549 and in the assay on CCRF-CEM was > 100 µM (inactive) throughout. The GI50 in the assay on HT-29, with SR, with 786-0, with HCC 2998, with COLO 205 and with LOX IMVI was > 100 µM (inactive) throughout. Besides, the GI50 in the assay on IGROV-1, in the assay on OVCAR-4, in the assay with HCT-116, in the assay with NCI/ADR-RES, in the assay on TK-10 and in the assay on SK-MEL-5 was > 100 µM (inactive) throughout.

Take `N[C@H](C(=O)O)[C@H]1ON=C(Cl)[C@@H]1O`: the GI50 with EKVX is 5.11 µM (inactive); in the assay on U-251, 3.3 µM (inactive); with MDA-N, 2.95 µM (inactive); in the assay on MDA-MB-231 it was 12.2 µM (inactive); in the assay on BT-549 it was 3.97 µM (inactive); in the assay on CAKI-1, 1.77 µM (inactive). The GI50 in the assay on CCRF-CEM was 0.966 µM (active); in the assay with HT-29 it was 0.286 µM (active); with SR it was 1.73 µM (inactive); in the assay on 786-0, 6.61 µM (inactive); in the assay on HCC 2998 it was 1.15 µM (inactive); in the assay with COLO 205, 0.59 µM (active). The GI50 was 8.71 µM (inactive) in the assay with LOX IMVI; 2.84 µM (inactive) in the assay on IGROV-1; 29.3 µM (inactive) with OVCAR-4; 2.36 µM (inactive) in the assay on HCT-116; 6.49 µM (inactive) in the assay on NCI/ADR-RES; > 28.5 µM (inactive) with TK-10. Further, in the assay with SK-MEL-5, the GI50 was 0.929 µM (active).

`Fc1cccc(Cl)c1C1SCc2nc3cc4ccccc4cc3n21` (configuration not stated): the GI50 in the assay with EKVX is > 100 µM (inactive); with U-251, > 100 µM (inactive); in the assay on MDA-N, > 100 µM (inactive); in the assay on MDA-MB-231 it was 61.5 µM (inactive); in the assay on BT-549, > 100 µM (inactive); in the assay with CAKI-1, 99.1 µM (inactive). For the same molecule, the GI50 in the assay on CCRF-CEM was > 100 µM (inactive); in the assay with HT-29, 89.1 µM (inactive); in the assay on SR, 8.32 µM (inactive); in the assay on 786-0, 39.4 µM (inactive); with HCC 2998 it was > 100 µM (inactive); in the assay on COLO 205, > 100 µM (inactive). Besides, the GI50 in the assay with LOX IMVI was > 100 µM (inactive); with IGROV-1 it was 46.9 µM (inactive); in the assay with OVCAR-4, 28.9 µM (inactive); in the assay with HCT-116 it was 68.5 µM (inactive); in the assay on NCI/ADR-RES, 64.6 µM (inactive); with TK-10, 62.7 µM (inactive).

`COC(=O)C1=COC(C)C2C[n+]3ccc4c([nH]c5ccccc54)c3CC12` (configuration not stated): the GI50 in the assay on EKVX, in the assay with U-251, in the assay with MDA-N, in the assay with MDA-MB-231, in the assay with BT-549 and in the assay with CAKI-1 was > 100 µM (inactive) in each case. The GI50 in the assay on CCRF-CEM, in the assay with HT-29, in the assay on 786-0, in the assay with HCC 2998, in the assay on COLO 205 and in the assay with LOX IMVI was > 100 µM (inactive) throughout. The GI50 with IGROV-1 is 49.1 µM (inactive); in the assay with OVCAR-4 it was 81.7 µM (inactive); in the assay with HCT-116, > 100 µM (inactive); with NCI/ADR-RES, > 100 µM (inactive); with TK-10, > 100 µM (inactive); with SK-MEL-5 it was > 100 µM (inactive). Further, the GI50 in the assay on A498 was > 100 µM (inactive).
